Data reported in ChEMBL document CHEMBL1156950, “Synthesis and biological evaluation of 4-anilinoquinolines as potent inhibitors of epidermal growth factor receptor” (J Med Chem, 2010).
pIC50: −log10 of the molar value. Activity calls are given as the source filed them. The calls are words filed in the database; no cut-off is given here.

Tests used:
[1] = target: Serine/threonine-protein kinase Sgk1 (Homo sapiens) (UniProt O00141); experiment: Inhibition of SGK1 at 10 uM assessed as residual activity by [33P]ATP radioactive filter binding assay relative to control
[2] = target: Serine/threonine-protein kinase PLK1 (Homo sapiens) (UniProt P53350); experiment: Inhibition of PLK1 at 10 uM assessed as residual activity by [33P]ATP radioactive filter binding assay relative to control
[3] = target: Serine/threonine-protein kinase PAK 5 (Homo sapiens) (UniProt Q9P286); experiment: Inhibition of PAK5 at 10 uM assessed as residual activity by [33P]ATP radioactive filter binding assay relative to control
[4] = target: MAP/microtubule affinity-regulating kinase 4 (Homo sapiens) (UniProt Q96L34); experiment: Inhibition of MARK4 at 10 uM assessed as residual activity by [33P]ATP radioactive filter binding assay relative to control
[5] = target: Serine/threonine-protein kinase pim-2 (Homo sapiens) (UniProt Q9P1W9); experiment: Inhibition of PIM2 at 10 uM assessed as residual activity by [33P]ATP radioactive filter binding assay relative to control
[6] = target: Ribosomal protein S6 kinase alpha-1 (Homo sapiens) (UniProt Q15418); experiment: Inhibition of RSK1 at 10 uM assessed as residual activity by [33P]ATP radioactive filter binding assay relative to control
[7] = target: Misshapen-like kinase 1 (Homo sapiens) (UniProt Q8N4C8); experiment: Inhibition of MINK1 at 10 uM assessed as residual activity by [33P]ATP radioactive filter binding assay relative to control
[8] = target: MAP kinase-interacting serine/threonine-protein kinase 2 (Homo sapiens) (UniProt Q9HBH9); experiment: Inhibition of MNK2 at 10 uM assessed as residual activity by [33P]ATP radioactive filter binding assay relative to control
[9] = target: Insulin receptor-related protein (Homo sapiens) (UniProt P14616); experiment: Inhibition of IRR at 10 uM assessed as residual activity by [33P]ATP radioactive filter binding assay relative to control
[10] = target: Tyrosine-protein kinase BTK (Homo sapiens) (UniProt Q06187); experiment: Inhibition of BTK at 10 uM assessed as residual activity by [33P]ATP radioactive filter binding assay relative to control
[11] = target: Dual specificity tyrosine-phosphorylation-regulated kinase 1A (Homo sapiens) (UniProt Q13627); experiment: Inhibition of DYRK1A at 10 uM assessed as residual activity by [33P]ATP radioactive filter binding assay relative to control
cells [12] = settings: Mus musculus, BaF3, 96 h
Description: Growth inhibition of mouse BA/F3 cells expressing EGFR Del5 and Thr790Met mutant after 96 hrs by cell titer-glo assay

[13] = target: NUAK family SNF1-like kinase 1 (Homo sapiens) (UniProt O60285); experiment: Inhibition of NUAK1 at 10 uM assessed as residual activity by [33P]ATP radioactive filter binding assay relative to control
[14] = Inhibition of VEGFR at 10 uM assessed as residual activity by [33P]ATP radioactive filter binding assay relative to control
[15] = target: MAP kinase-activated protein kinase 2 (Homo sapiens) (UniProt P49137); experiment: Inhibition of MAPKAP-K2 at 10 uM assessed as residual activity by [33P]ATP radioactive filter binding assay relative to control
[16] = target: Ribosomal protein S6 kinase alpha-5 (Homo sapiens) (UniProt O75582); experiment: Inhibition of MSK1 at 10 uM assessed as residual activity by [33P]ATP radioactive filter binding assay relative to control
[17] = target: Tyrosine-protein kinase Lck (Homo sapiens) (UniProt P06239); experiment: Inhibition of Lck at 10 uM assessed as residual activity by [33P]ATP radioactive filter binding assay relative to control
[18] = target: Serine/threonine-protein kinase D1 (Homo sapiens) (UniProt Q15139); experiment: Inhibition of PKD1 at 10 uM assessed as residual activity by [33P]ATP radioactive filter binding assay relative to control
[19] = target: Dual specificity mitogen-activated protein kinase kinase 1 (Homo sapiens) (UniProt Q02750); experiment: Inhibition of MKK1 at 10 uM assessed as residual activity by [33P]ATP radioactive filter binding assay relative to control
[20] = target: Maternal embryonic leucine zipper kinase (Homo sapiens) (UniProt Q14680); experiment: Inhibition of MELK at 10 uM assessed as residual activity by [33P]ATP radioactive filter binding assay relative to control
[21] = target: Serine/threonine-protein kinase Chk2 (Homo sapiens) (UniProt O96017); experiment: Inhibition of CHK2 at 10 uM assessed as residual activity by [33P]ATP radioactive filter binding assay relative to control
cells [22] = settings: Mus musculus, BaF3, 96 h; remark: listed apart in the source
[23] = target: Homeodomain-interacting protein kinase 1 (Homo sapiens) (UniProt Q86Z02); experiment: Inhibition of HIPK1 at 10 uM assessed as residual activity by [33P]ATP radioactive filter binding assay relative to control
[24] = Inhibition of CK2 at 10 uM assessed as residual activity by [33P]ATP radioactive filter binding assay relative to control
[25] = target: Inhibitor of nuclear factor kappa-B kinase subunit epsilon (Homo sapiens) (UniProt Q14164); experiment: Inhibition of IKKepsilon at 10 uM assessed as residual activity by [33P]ATP radioactive filter binding assay relative to control
[26] = target: Tyrosine-protein kinase SYK (Homo sapiens) (UniProt P43405); experiment: Inhibition of SYK at 10 uM assessed as residual activity by [33P]ATP radioactive filter binding assay relative to control
[27] = target: RAC-beta serine/threonine-protein kinase (Homo sapiens) (UniProt P31751); experiment: Inhibition of PKBbeta at 10 uM assessed as residual activity by [33P]ATP radioactive filter binding assay relative to control
[28] = target: Protein kinase C zeta type (Homo sapiens) (UniProt Q05513); experiment: Inhibition of PKCzeta at 10 uM assessed as residual activity by [33P]ATP radioactive filter binding assay relative to control
[29] = target: Mitogen-activated protein kinase 15 (Homo sapiens) (UniProt Q8TD08); experiment: Inhibition of ERK8 at 10 uM assessed as residual activity by [33P]ATP radioactive filter binding assay relative to control
[30] = target: Epidermal growth factor receptor (Homo sapiens, UniProt P00533, L858R/T790M); experiment: Inhibition of EGFR Leu858Arg and Thr790Met mutant by HTRF assay; format: protein assay
PC-9 = experiment: Cytotoxicity against human PC9 cells expressing 746-750 sequence deleted EGFR assessed as cell viability at 0.001 to 10 uM after 96 hrs by cell titer-glo assay; format: functional, cell-based
[31] = target: Ribosomal protein S6 kinase beta-1 (Homo sapiens) (UniProt P23443); experiment: Inhibition of S6K1 at 10 uM assessed as residual activity by [33P]ATP radioactive filter binding assay relative to control
[32] = test system: 3-phosphoinositide-dependent protein kinase 1; experiment: Inhibition of PDK1 at 10 uM assessed as residual activity by [33P]ATP radioactive filter binding assay relative to control

MAP/microtubule affinity-regulating kinase 4 (Homo sapiens), sequence (Q96L34 whole entry): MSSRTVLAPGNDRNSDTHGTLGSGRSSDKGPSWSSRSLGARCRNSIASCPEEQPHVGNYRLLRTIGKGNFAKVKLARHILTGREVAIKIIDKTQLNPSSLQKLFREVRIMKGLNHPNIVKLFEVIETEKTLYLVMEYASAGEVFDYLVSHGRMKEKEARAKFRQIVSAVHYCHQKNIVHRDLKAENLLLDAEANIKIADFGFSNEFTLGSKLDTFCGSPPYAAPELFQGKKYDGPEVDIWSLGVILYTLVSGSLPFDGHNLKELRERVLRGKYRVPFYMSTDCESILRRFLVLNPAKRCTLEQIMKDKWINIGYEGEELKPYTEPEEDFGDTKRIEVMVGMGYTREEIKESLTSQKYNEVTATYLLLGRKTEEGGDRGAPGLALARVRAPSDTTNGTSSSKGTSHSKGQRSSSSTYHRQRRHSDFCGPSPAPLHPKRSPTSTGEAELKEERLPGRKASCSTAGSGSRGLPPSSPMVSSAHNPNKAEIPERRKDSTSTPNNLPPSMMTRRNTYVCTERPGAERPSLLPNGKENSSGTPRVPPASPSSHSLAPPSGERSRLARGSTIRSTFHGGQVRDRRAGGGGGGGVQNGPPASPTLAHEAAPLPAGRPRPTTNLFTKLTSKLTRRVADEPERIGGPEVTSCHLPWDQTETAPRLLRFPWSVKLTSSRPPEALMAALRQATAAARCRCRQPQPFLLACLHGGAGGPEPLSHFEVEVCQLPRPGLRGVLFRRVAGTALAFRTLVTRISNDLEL
Ribosomal protein S6 kinase alpha-5 (Homo sapiens), sequence (O75582 whole entry, looked up): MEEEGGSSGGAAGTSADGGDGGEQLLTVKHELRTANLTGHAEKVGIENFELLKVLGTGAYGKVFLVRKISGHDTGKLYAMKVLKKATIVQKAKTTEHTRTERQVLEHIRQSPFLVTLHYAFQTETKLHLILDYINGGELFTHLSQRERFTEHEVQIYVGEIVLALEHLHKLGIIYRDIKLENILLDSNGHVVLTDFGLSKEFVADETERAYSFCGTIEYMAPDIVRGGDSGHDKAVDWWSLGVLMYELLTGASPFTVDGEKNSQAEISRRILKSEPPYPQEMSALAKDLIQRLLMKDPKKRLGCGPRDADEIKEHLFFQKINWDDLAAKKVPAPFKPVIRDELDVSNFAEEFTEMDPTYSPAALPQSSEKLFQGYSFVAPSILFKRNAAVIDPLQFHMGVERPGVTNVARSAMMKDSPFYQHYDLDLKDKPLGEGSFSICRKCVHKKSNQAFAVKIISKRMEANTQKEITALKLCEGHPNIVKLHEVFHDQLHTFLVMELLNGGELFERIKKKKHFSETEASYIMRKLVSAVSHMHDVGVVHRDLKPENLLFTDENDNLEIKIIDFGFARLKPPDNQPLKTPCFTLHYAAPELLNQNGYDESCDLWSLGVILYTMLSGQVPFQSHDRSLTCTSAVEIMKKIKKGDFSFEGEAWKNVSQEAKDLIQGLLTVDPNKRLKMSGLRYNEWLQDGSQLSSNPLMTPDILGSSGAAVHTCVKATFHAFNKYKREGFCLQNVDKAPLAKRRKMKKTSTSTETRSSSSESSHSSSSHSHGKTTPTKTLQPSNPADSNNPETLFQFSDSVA
NUAK family SNF1-like kinase 1 (Homo sapiens), sequence (O60285 whole entry): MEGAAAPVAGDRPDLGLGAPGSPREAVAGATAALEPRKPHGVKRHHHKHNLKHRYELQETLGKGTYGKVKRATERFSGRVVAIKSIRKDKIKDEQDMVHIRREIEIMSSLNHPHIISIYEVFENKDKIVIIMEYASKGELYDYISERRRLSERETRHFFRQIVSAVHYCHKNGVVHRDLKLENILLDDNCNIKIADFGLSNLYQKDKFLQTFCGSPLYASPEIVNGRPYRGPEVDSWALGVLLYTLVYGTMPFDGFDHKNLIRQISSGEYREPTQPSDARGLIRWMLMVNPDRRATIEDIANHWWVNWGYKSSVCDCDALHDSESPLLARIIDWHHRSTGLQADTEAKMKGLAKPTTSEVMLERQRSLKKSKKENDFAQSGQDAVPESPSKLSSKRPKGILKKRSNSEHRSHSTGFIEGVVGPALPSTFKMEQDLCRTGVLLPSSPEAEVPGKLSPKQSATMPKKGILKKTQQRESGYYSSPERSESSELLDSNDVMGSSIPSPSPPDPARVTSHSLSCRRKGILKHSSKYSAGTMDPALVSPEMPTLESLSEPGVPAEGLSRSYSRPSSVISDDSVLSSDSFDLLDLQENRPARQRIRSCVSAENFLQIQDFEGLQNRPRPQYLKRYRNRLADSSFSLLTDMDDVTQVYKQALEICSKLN
Serine/threonine-protein kinase D1 (Homo sapiens), sequence (Q15139 whole entry): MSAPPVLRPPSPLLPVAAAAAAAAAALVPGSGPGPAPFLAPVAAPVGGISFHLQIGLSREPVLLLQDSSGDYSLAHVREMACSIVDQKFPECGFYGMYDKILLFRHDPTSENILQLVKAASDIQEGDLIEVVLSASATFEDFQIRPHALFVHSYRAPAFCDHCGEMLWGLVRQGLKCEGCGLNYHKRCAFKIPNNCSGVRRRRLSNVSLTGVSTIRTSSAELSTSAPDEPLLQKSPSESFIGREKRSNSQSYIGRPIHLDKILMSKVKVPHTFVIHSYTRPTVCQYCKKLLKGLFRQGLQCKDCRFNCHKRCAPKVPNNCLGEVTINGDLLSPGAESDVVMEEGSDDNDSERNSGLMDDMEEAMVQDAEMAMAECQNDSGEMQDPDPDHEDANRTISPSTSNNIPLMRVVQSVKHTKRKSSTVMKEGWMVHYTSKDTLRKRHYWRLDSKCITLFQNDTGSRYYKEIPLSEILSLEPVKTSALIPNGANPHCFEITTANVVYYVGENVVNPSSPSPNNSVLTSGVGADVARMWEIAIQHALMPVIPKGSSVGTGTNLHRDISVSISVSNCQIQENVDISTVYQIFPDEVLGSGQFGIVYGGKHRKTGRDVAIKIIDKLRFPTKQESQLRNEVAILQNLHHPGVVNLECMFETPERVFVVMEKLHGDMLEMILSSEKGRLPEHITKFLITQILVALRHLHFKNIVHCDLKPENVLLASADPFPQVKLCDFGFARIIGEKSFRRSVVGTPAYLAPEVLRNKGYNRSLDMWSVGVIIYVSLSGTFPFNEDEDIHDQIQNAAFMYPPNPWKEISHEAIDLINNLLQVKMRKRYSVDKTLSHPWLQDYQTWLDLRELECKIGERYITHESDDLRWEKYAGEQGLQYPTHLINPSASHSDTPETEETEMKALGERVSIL
Mitogen-activated protein kinase 15 (Homo sapiens), sequence (Q8TD08 whole entry): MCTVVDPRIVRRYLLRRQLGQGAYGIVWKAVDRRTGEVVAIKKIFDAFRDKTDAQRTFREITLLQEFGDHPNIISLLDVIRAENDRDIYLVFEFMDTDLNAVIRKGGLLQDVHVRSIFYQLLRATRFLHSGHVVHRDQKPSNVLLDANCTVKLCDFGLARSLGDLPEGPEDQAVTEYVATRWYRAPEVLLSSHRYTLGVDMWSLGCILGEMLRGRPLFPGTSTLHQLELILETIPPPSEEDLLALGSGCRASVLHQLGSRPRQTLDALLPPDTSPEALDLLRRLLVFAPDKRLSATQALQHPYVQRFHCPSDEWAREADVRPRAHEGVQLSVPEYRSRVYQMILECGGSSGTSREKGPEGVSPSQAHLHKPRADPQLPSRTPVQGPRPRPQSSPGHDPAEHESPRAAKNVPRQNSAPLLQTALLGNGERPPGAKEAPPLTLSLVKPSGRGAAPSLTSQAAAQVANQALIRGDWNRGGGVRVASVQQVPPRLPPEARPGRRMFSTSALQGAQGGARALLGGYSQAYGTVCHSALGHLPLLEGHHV
Protein kinase C zeta type (Homo sapiens), sequence (Q05513 whole entry): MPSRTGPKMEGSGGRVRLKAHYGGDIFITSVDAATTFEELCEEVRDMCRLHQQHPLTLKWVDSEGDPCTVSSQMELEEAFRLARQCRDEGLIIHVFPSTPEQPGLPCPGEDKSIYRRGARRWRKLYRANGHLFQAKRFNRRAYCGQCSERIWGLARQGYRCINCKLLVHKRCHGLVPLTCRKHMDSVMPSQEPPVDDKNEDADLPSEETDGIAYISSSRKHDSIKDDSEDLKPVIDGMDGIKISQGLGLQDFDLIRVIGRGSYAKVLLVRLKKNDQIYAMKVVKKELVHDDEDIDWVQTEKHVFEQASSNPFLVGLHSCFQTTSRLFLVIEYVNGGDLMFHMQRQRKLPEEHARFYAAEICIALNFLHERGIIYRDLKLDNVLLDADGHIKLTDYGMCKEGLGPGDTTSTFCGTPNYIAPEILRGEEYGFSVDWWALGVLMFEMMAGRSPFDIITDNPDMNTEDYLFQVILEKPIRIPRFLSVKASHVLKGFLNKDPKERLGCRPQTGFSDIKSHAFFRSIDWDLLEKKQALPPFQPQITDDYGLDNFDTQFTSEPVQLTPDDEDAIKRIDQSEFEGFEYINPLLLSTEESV
Tyrosine-protein kinase Lck (Homo sapiens), sequence (P06239 2-509 limits assumed): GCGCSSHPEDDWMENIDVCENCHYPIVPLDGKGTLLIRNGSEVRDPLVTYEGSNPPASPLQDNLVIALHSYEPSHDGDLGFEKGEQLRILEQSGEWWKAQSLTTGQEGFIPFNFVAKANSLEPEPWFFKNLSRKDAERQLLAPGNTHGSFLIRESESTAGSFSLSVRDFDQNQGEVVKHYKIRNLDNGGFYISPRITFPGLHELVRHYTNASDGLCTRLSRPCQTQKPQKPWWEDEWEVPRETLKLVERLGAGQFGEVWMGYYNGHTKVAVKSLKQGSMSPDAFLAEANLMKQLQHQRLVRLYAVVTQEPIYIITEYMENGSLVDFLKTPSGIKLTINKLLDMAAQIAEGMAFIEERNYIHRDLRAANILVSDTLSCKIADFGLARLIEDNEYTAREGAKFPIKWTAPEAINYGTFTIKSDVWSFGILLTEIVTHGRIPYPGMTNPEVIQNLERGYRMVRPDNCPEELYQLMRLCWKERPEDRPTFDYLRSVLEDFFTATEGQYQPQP

With `CN(C)CCCC(=O)Nc1ccc2ncnc(Nc3cccc(Br)c3)c2c1` the Activity [1] was 72%, the Activity [2] was 95% and the Activity [3] was 64%. For the same compound, the Activity [4] was 74%, the Activity [5] was 62% and the Activity [6] was 72%. For the same compound, the Activity [7] was 35%, the Activity [8] was 14% and the Activity [9] was 70%. For the same compound, the Activity [10] was 79%, the Activity [11] was 65% and the GI50 (cells [12]) was greater than 5000 nM. For the same compound, the Activity [13] was 39%, the Activity [14] was 50% and the Activity [15] was 90%. The Activity [16] was 93%, the Activity [17] was 3% and the Activity [18] was 18%. For the same compound, the Activity [19] was 29%, the Activity [20] was 49% and the Activity [21] was 38%. It also gave a GI50 (cells [22]) greater than 5000 nM, an Activity [23] of 126% and an Activity [24] of 96%. It also gave an Activity [25] of 89%, an Activity [26] of 67% and an Activity [27] of 80%. It also gave an Activity [28] of 86% and an Activity [29] of 78%.

For `CN(C)CCCC(=O)Nc1ccc2nccc(Nc3cccc(Br)c3)c2c1`, the Activity [1] was 82%, the Activity [2] was 109% and the Activity [3] was 68%. It also gave an Activity [4] of 75%, an Activity [5] of 75% and an Activity [6] of 89%. The Activity [7] was 12%, the Activity [8] was 21% and the Activity [9] was 79%. The Activity [10] was 36%, the Activity [11] was 85% and the GI50 (cells [12]) was greater than 500 nM. It also gave an Activity [13] of 37%, an Activity [14] of 36% and an Activity [15] of 86%. For the same compound, the Activity [16] was 96%, the Activity [17] was 1% and the Activity [18] was 14%. The Activity [19] was 45%, the Activity [20] was 25% and the Activity [21] was 27%. The GI50 (cells [22]) was greater than 500 nM, the Activity [23] was 103% and the Activity [24] was 90%. For the same compound, the Activity [25] was 92%, the Activity [26] was 57% and the pIC50 [30] was 6.89. For the same compound, the Activity (PC-9) was “Active”, the Activity [27] was 61% and the Activity [31] was 87%. The Activity [28] was 86%, the Activity [32] was 78% and the Activity [29] was 85%.
